Test results: ChEMBL document CHEMBL5252602, “Identification and in silicon binding study of a novel NR2B selective NMDAR antagonist” (Bioorg Med Chem Lett, 2023)

Tests used:
[1] = tested on: SH-SY5Y; test: Neuroprotective activity against human SH-SY5Y cells assessed as effect on NMDA mediated cell damage at 0.05 uM by MTT assay relative to control; assay type: functional
[2] = tested on: SH-SY5Y; test: Neuroprotective activity against human SH-SY5Y cells assessed as effect on NMDA mediated cell damage at 0.5 uM by MTT assay relative to control; assay type: functional
[3] = tested on: SH-SY5Y; test: Neuroprotective activity against human SH-SY5Y cells assessed as effect on NMDA mediated cell damage at 5 uM by MTT assay relative to control; assay type: functional
[4] = target: Glutamate receptor ionotropic, NMDA 2B (Homo sapiens, UniProt Q05586+Q13224); test: Antagonist activity at NMDA receptor NR2B subunit (unknown origin)
Glutamate receptor ionotropic, NMDA 2B, sequence (Q13224 whole entry, one chain of several): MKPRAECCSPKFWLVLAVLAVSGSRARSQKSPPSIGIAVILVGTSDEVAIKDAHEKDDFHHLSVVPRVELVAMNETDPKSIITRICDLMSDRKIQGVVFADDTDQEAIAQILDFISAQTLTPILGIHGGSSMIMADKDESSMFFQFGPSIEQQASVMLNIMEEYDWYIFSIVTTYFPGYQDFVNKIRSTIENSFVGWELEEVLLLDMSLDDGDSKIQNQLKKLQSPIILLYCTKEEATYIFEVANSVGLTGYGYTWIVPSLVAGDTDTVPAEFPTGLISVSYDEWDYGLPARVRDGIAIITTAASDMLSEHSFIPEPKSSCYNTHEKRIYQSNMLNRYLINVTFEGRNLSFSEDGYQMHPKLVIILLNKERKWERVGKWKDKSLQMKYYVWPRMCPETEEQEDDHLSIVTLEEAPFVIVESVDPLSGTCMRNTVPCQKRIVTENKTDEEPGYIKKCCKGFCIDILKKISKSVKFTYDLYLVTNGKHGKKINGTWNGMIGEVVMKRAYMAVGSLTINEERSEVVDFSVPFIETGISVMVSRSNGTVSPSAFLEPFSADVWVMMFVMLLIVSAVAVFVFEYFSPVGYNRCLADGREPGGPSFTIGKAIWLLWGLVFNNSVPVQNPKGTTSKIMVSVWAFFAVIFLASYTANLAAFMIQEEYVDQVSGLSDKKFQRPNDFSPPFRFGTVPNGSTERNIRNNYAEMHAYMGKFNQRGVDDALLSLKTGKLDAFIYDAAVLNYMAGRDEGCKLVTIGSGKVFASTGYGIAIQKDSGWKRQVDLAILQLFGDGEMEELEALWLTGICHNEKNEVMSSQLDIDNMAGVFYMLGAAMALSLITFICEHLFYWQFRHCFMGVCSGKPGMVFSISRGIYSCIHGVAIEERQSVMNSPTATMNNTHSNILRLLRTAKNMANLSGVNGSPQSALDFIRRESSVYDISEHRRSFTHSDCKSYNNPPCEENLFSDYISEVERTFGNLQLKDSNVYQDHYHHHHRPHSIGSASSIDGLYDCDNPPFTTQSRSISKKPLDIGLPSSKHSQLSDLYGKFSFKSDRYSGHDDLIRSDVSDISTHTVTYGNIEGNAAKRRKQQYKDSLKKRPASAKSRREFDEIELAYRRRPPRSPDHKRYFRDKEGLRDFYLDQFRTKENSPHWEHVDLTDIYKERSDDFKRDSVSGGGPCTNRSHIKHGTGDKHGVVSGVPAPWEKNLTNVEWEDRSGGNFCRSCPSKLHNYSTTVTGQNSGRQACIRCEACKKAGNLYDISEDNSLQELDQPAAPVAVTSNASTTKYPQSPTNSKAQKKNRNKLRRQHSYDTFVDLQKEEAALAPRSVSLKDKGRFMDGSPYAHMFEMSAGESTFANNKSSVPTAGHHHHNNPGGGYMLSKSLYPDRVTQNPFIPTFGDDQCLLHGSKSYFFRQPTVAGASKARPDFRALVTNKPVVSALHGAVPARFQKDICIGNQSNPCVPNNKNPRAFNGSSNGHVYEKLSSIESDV

SMILES | Activity [1] | Activity [2] | Activity [3] | IC50 [4]
O=C(NNC(=O)[C@@H]1CCC2=Nc3ccc(Cl)cc3CN21)c1ccc(O)cc1 | 16.03% | 22.55% | 22.58% | –
O=C(NNC(=O)[C@@H]1CCC2=Nc3ccc(Br)cc3CN21)c1ccc(F)cc1 | 23.87% | 19.88% | 19.48% | –
O=C(NNC(=O)[C@@H]1CCC2=Nc3ccc(Br)cc3CN21)c1ccccc1 | 7.13% | 20.92% | 18.22% | –
O=C(NCCc1cccc(O)c1)[C@@H]1CCC2=Nc3ccc(Br)cc3CN21 | 28.73% | 28.87% | 25.35% | –
O=C(NCCc1cccc(O)c1)[C@@H]1CCC2=Nc3ccccc3CN21 | 29.63% | 29.17% | 24.42% | –
O=C(NCCc1ccc(F)cc1)[C@@H]1CCC2=Nc3ccc(Br)cc3CN21 | 4.05% | 7.08% | -2.81% | –
O=C(NCCc1ccc(F)cc1)[C@@H]1CCC2=Nc3ccc(Cl)cc3CN21 | 13.45% | 27.96% | 26.14% | –
Nc1ccc(C(=O)NNC(=O)[C@@H]2CCC3=Nc4ccc(Br)cc4CN32)cc1 | 25.12% | 24.22% | 15.62% | –
Nc1ccc(C(=O)NNC(=O)[C@@H]2CCC3=Nc4ccc(Cl)cc4CN32)cc1 | 30.71% | 25.28% | 20.43% | –
Nc1ccc(CCNC(=O)[C@@H]2CCC3=Nc4ccc(Br)cc4CN32)cc1 | -15.74% | -15.08% | -11.03% | –
Nc1ccc(CCNC(=O)[C@@H]2CCC3=Nc4ccc(Cl)cc4CN32)cc1 | -5.03% | -16.58% | -15.32% | –
O=C(NCCc1ccc(O)cc1)[C@@H]1CCC2=Nc3ccc(Cl)cc3CN21 | 28.93% | 28.33% | 21.32% | –
O=C(NCCc1ccccc1)[C@@H]1CCC2=Nc3ccc(Br)cc3CN21 | 11.08% | 7.54% | 10.59% | –
COc1ccc(CCNC(=O)[C@@H]2CCC3=Nc4ccc(Cl)cc4CN32)cc1 | 17.35% | 30.19% | 30.66% | –
COc1ccc(C(=O)NNC(=O)[C@@H]2CCC3=Nc4ccc(Cl)cc4CN32)cc1 | 19.6% | 20.2% | 12.17% | –
O=C(NNC(=O)[C@@H]1CCC2=Nc3ccc(Cl)cc3CN21)c1ccc(F)cc1 | 22.58% | 20.68% | 17.26% | –
O=C(NNC(=O)[C@@H]1CCC2=Nc3ccc(Cl)cc3CN21)c1ccccc1 | 26.91% | 24.25% | 19.76% | –
O=C(NCCc1ccccc1)[C@@H]1CCC2=Nc3ccc(Cl)cc3CN21 | 13.21% | 5.78% | 10.01% | –
COc1ccc(C(=O)NNC(=O)[C@@H]2CCC3=Nc4ccccc4CN32)cc1 | 12.59% | 17.74% | 22.42% | –
COc1ccc(CCNC(=O)[C@@H]2CCC3=Nc4ccc(Br)cc4CN32)cc1 | 27.75% | 27.25% | 17.27% | –
COc1ccc(C(=O)NNC(=O)[C@@H]2CCC3=Nc4ccc(Br)cc4CN32)cc1 | 9.01% | 15.94% | 19.77% | –
O=C(NCCc1cccc(O)c1)[C@@H]1CCC2=Nc3ccc(Cl)cc3CN21 | 23.62% | 28.02% | 29.37% | –
Cc1nccn1Cc1cc(-c2ccc(F)c(C(F)F)c2)cnn1 [EVT-101 FREE BASE] | – | – | – | 17 nM
CC(C(O)c1ccc(O)cc1)N1CCC(Cc2ccccc2)CC1 (stereo not given) [IFENPRODIL] | 16.4% | 22.57% | 35.81% | –
